Data: patent publication US9447148B2, “Melanocortin-1 receptor-specific cyclic peptides” (Palatin Technologies, Inc., priority 2009, dated 2016)
pEC50, pKi: −log10 of the molar value. Bridge positions count the residues as written; N and C are the ends. Square brackets hold non-standard residues; d marks the D form. Peptide text beside a SMILES is read from it. dPhe(4-Me) = Cc1ccc(C[C@@H](N)C(=O)O)cc1; Nle = CCCC[C@H](N)C(=O)O; Orn = NCCC[C@H](N)C(=O)O; Dab = NCC[C@H](N)C(=O)O; Dap = NC[C@H](N)C(=O)O

Key:
hMCR-1 = hMCR-1 (Homo sapiens (Human), UniProt Q01726); assay: Assay for agonist activity: intracellular cAMP accumulation in HBL human melanoma cells; format: cell-based; conditions: for pEC50: HBL cells expressing hMCR-1, averaged, read-out: MC-1 EC50 (average; cAMP HBL); for MC-1 Emax (average; cAMP HBL): HBL cells, maximum efficacy compared to reference agonist NDP-α-MSH
Description: Confluent HBL cells that express hMCR-1 or HEK-293 cells that express recombinant hMCR-4 were detached from culture plates by incubation in enzyme-free cell dissociation buffer. Dispersed cells were suspended in Earle's Balanced Salt Solution containing 10 mM HEPES (pH 7.5), 1 mM MgCl2, 1 mM glutamine, 0.5% albumin and 0.3 mM 3-isobutyl-1-methyl-xanthine (IBMX), a phosphodiesterase inhibitor. The cells were plated in 96-well plates at a density of 0.4×10^5 cells per well for HBL cells and 0.5×10^5 cells per well for HEK-293 cells and pre-incubated for 10 minutes. Cells were exposed for 15 minutes at 37° C. to peptides of the present invention dissolved in DMSO (final DMSO concentration of 1%) at a concentration range of 0.05-5000 nM in a total assay volume of 200 μL. […] Data analysis was performed by nonlinear regression analysis with Graph-Pad Prism® software.
(§1) Peptides of the following structures were synthesized and averaged MCR-1 and MCR-4 Ki values were determined as indicated. […] All results are expressed in nM except for Emax values, which are percentage values. Peptides with the captioned primary sequence were synthesized and purified as described in Section 5 above, with the resulting peptide having the structure depicted.

hMCR-1a = hMCR-1a (Homo sapiens (Human), UniProt Q01726); assay: Competitive inhibition binding assay using [I125]-NDP-α-MSH, hMCR-1a; conditions: membrane homogenates of HEK-293 cells, human recombinant receptor, averaged, read-out: MC-1 Ki (average)
Description: (§2) A competitive inhibition binding assay was performed using membrane homogenates prepared from HEK-293 cells that express recombinant hMCR-1a or hMCR-4 (in each instance where the h prefix refers to human), or alternatively membrane homogenates from B16-F10 mouse melanoma cells containing endogenous murine MCR-1. In the examples that follow, all MCR-1 and MCR-4 values are for human recombinant receptors, unless otherwise noted. Assays were performed in 96 well polypropylene round-bottom plates (VWR catalog number 12777-030). […] After incubation for 90 minutes at 37° C., the assay mixture was filtered onto GF/B Unifilter plates (Perkin-Elmer catalog number 6005177) and washed with 3 mL of ice-cold buffer per well. Filters were air dried and 35 μL of scintillation cocktail added to each well. Plates were counted in a Microbeta counter for bound radioactivity. […] Each assay was conducted in duplicate and the actual mean values are described, with results less than 0% reported as 0%. Ki values for peptides of the present invention were determined using Graph-Pad Prism® curve-fitting software.
as §1

hMCR-4 = hMCR-4 (Homo sapiens (Human), UniProt P32245); assay: Competitive inhibition binding assay using [I125]-NDP-α-MSH, hMCR-4; conditions: membrane homogenates of HEK-293 cells, human recombinant receptor, averaged, read-out: MC-4 Ki (average)
Description: as §2, §1

Sequence of hMCR-4 (P32245 whole entry): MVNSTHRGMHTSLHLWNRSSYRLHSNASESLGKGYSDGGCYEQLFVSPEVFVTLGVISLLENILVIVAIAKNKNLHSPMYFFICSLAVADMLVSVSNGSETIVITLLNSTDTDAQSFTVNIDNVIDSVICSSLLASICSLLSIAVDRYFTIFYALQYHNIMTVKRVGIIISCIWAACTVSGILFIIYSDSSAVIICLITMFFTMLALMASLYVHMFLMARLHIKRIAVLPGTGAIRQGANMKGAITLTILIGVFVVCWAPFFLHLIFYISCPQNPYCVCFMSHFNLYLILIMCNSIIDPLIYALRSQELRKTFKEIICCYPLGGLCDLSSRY
Sequence of hMCR-1 (Q01726 whole entry): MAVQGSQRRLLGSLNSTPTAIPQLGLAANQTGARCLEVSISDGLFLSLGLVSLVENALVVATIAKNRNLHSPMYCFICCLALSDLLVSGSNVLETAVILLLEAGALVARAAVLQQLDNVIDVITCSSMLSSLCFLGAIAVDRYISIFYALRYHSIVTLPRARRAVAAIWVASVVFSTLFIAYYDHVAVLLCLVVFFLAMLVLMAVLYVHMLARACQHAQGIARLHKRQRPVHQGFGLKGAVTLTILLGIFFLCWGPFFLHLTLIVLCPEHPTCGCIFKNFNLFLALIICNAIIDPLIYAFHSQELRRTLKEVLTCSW
Sequence of hMCR-1a (Q01726 whole entry): as above

Structure (SMILES)	pEC50 (hMCR-1)	pKi (hMCR-1a)	pKi (hMCR-4)	MC-1 Emax (average; cAMP HBL) (hMCR-1)
CCCC[C@H](NC(C)=O)C(=O)N[C@H]1CC(=O)NC[C@@H](C(=O)N[C@@H](Cc2c[nH]c3ccccc23)C(N)=O)NC(=O)[C@H](CCCNC(=N)N)NC(=O)[C@@H](Cc2ccccc2)NC(=O)[C@H](Cc2c[nH]cn2)NC1=O [Example 9.4, Ac-Nle-cyclo(Asp-His-D-Phe-Arg-Dap)-Trp-NH2] (Ac-[Nle]DH[dF]R[Dap]W-NH2; lactam 2-6)	9.71	8.70	5.88	–
N=C(N)NCCC[C@@H]1NC(=O)[C@@H](Cc2ccccc2)NC(=O)[C@H](Cc2c[nH]cn2)NC(=O)[C@@H](NC(=O)C2CC2)CCC(=O)NCC[C@@H](C(=O)N[C@@H](Cc2c[nH]c3ccccc23)C(N)=O)NC1=O [Example 9.19, cyclo-propanoyl-cyclo(Glu-His-D-Phe-Arg-Dab)-Trp-NH2]	–	8.52	–	–
N=C(N)NCCC[C@@H]1NC(=O)[C@@H](Cc2ccccc2)NC(=O)[C@H](Cc2c[nH]cn2)NC(=O)[C@@H](NC(=O)CC2CCCC2)CCC(=O)NCC[C@@H](C(=O)N[C@@H](Cc2c[nH]c3ccccc23)C(N)=O)NC1=O [Example 9.21, cyclopentyl acetyl-cyclo(Glu-His-D-Phe-Arg-Dab)-Trp-NH2]	11.40	11.00	–	–
CCCC[C@H](NC(C)=O)C(=O)N[C@H]1CCC(=O)NCC[C@@H](C(=O)N[C@@H](Cc2c[nH]c3ccccc23)C(N)=O)NC(=O)[C@H](CCCNC(=N)N)NC(=O)[C@@H](Cc2ccccc2)NC(=O)[C@H](Cc2c[nH]cn2)NC1=O [Example 9.31, Ac-Nle-cyclo(Glu-His-D-Phe-Arg-Dab)-Trp-OH]	–	–	5.00	79% ^
CCCC[C@H](NC(C)=O)C(=O)N[C@H]1CCC(=O)NCC[C@@H](C(=O)N[C@@H](Cc2c[nH]c3ccccc23)C(N)=O)NC(=O)[C@H](CCCNC(=N)N)NC(=O)[C@@H](Cc2ccccc2)NC(=O)[C@H](CCCN)NC1=O [Example 9.42, Ac-Nle-cyclo(Glu-Orn-D-Phe-Arg-Dab)-Trp-NH2]	–	–	7.35	–
CCCC[C@H](NC(C)=O)C(=O)N[C@H]1CNC(=O)CCC(=O)NCC[C@@H](C(=O)N[C@@H](Cc2c[nH]c3ccccc23)C(N)=O)NC(=O)[C@H](CCCNC(=N)N)NC(=O)[C@@H](Cc2ccccc2)NC(=O)[C@H](Cc2c[nH]cn2)NC1=O [Example 9.43]	–	10.19	6.07	–
CCCC[C@H](NC(C)=O)C(=O)N[C@H]1CCC(=O)NCC[C@@H](C(N)=O)NC(=O)[C@H](CCCNC(=N)N)NC(=O)[C@@H](Cc2ccccc2)NC(=O)[C@H](Cc2c[nH]cn2)NC1=O [Example 9.44, Ac-Nle-cyclo(Glu-His-D-Phe-Arg-Dab)-NH2] (Ac-[Nle]EH[dF]R[Dab]-NH2; lactam 2-6)	–	–	–	85% ^
CCCC[C@H](NC(C)=O)C(=O)N[C@H]1CCC(=O)NCC[C@@H](C(N)=O)NC(=O)[C@H](C)NC(=O)[C@@H](Cc2ccccc2)NC(=O)[C@H](Cc2c[nH]cn2)NC1=O [Example 9.45, Ac-Nle-cyclo(Glu-His-D-Phe-Ala-Dab)-NH2] (Ac-[Nle]EH[dF]A[Dab]-NH2; lactam 2-6)	–	–	–	73%
CCCC[C@H](NC(C)=O)C(=O)N[C@H]1CCC(=O)NCC[C@@H](C(N)=O)NC(=O)[C@@H](Cc2ccccc2)NC(=O)[C@H](Cc2c[nH]cn2)NC1=O [Example 9.46, Ac-Nle-cyclo(Glu-His-D-Phe-Dab)-NH2] (Ac-[Nle]EH[dF][Dab]-NH2; lactam 2-5)	–	5.00	5.00	–
CCCC[C@H](NC(C)=O)C(=O)N[C@H]1CCC(=O)NCC[C@@H](C(=O)N[C@@H](Cc2c[nH]c3ccccc23)C(N)=O)NC(=O)CNC(=O)[C@@H](Cc2ccccc2)NC(=O)[C@H](Cc2c[nH]cn2)NC1=O [Example 9.47, Ac-Nle-cyclo(Glu-His-D-Phe-Gly-Dab)-Trp-NH2] (Ac-[Nle]EH[dF]G[Dab]W-NH2; lactam 2-6)	–	–	–	59%
CCCC[C@H](NC(C)=O)C(=O)N[C@H]1CCC(=O)NCC[C@@H](C(=O)N[C@@H](Cc2c[nH]c3ccccc23)C(N)=O)NC(=O)[C@H](C)NC(=O)[C@@H](Cc2ccccc2)NC(=O)[C@H](Cc2c[nH]cn2)NC1=O [Example 9.48, Ac-Nle-cyclo(Glu-His-D-Phe-Ala-Dab)-Trp-NH2] (Ac-[Nle]EH[dF]A[Dab]W-NH2; lactam 2-6)	–	–	–	72% ^
CCCC[C@H](NC(C)=O)C(=O)N[C@H]1CCC(=O)NCC[C@@H](C(=O)N[C@@H](Cc2c[nH]c3ccccc23)C(N)=O)NC(=O)[C@H](CCCNC(=N)N)NC(=O)[C@@H](Cc2ccccc2)NC(=O)[C@H](C)NC1=O [Example 9.49, Ac-Nle-cyclo(Glu-Ala-D-Phe-Arg-Dab)-Trp-NH2]	–	–	–	86% ^
CCCC[C@H](NC(C)=O)C(=O)N[C@H]1CCC(=O)NCC[C@@H](C(=O)N[C@@H](Cc2c[nH]c3ccccc23)C(N)=O)NC(=O)[C@H](CCCNC(=N)N)NC(=O)[C@@H](Cc2ccccc2)NC(=O)[C@H](CCCNC(=N)N)NC1=O [Example 9.50, Ac-Nle-cyclo(Glu-Arg-D-Phe-Arg-Dab)-Trp-NH2]	–	–	–	100% ^
CCCC[C@H](NC(C)=O)C(=O)N[C@H]1CCC(=O)NCC[C@@H](C(=O)N[C@@H](Cc2c[nH]c3ccccc23)C(N)=O)NC(=O)[C@H](CCCNC(=N)N)NC(=O)[C@@H](Cc2ccccc2)NC(=O)[C@H](CCCNC(N)=O)NC1=O [Example 9.51, Ac-Nle-cyclo(Glu-Cit-D-Phe-Arg-Dab)-Trp-NH2]	–	–	–	97% ^
CCCC[C@H](NC(C)=O)C(=O)N[C@H]1CCC(=O)NCC[C@@H](C(=O)N[C@@H](CCCCN)C(N)=O)NC(=O)[C@H](CCCNC(=N)N)NC(=O)[C@@H](Cc2ccccc2)NC(=O)[C@H](Cc2c[nH]cn2)NC1=O [Example 9.52, Ac-Nle-cyclo(Glu-His-D-Phe-Arg-Dab)-Lys-NH2] (Ac-[Nle]EH[dF]R[Dab]K-NH2; lactam 2-6)	–	–	–	91% ^
CCCC[C@H](NC(C)=O)C(=O)N[C@H]1CCC(=O)NCC[C@@H](C(=O)N[C@@H](Cc2c[nH]c3ccccc23)C(N)=O)NC(=O)[C@H](CCCNC(=N)N)NC(=O)[C@@H](Cc2ccccc2)NC(=O)[C@H](CCCCN)NC1=O [Example 9.53, Ac-Nle-cyclo(Glu-Lys-D-Phe-Arg-Dab)-Trp-NH2]	–	–	–	108% ^
CCCC[C@H](NC(C)=O)C(=O)N[C@H]1CCC(=O)NCC[C@@H](C(=O)N[C@@H](Cc2c[nH]c3ccccc23)C(N)=O)NC(=O)[C@H](CCCNC(=N)N)NC(=O)[C@@H](Cc2ccccc2)NC(=O)[C@H](CCN)NC1=O [Example 9.54, Ac-Nle-cyclo(Glu-Dab-D-Phe-Arg-Dab)-Trp-NH2]	–	–	–	108% ^
CCCC[C@H](NC(C)=O)C(=O)N[C@H]1CCC(=O)NCC[C@@H](C(=O)N[C@@H](Cc2c[nH]c3ccccc23)C(N)=O)NC(=O)[C@H](CCCNC(=N)N)NC(=O)[C@@H](Cc2ccccc2)NC(=O)[C@H](CCCN)NC1=O [Example 9.55, Ac-Nle-cyclo(Glu-Orn-D-Phe-Arg-Dab)-Trp-NH2]	–	–	–	109% ^
CCCC[C@H](NC(C)=O)C(=O)N[C@H]1CCC(=O)NCC[C@@H](C(N)=O)NC(=O)[C@H](CCCNC(=N)N)NC(=O)[C@@H](Cc2ccccc2)NC(=O)[C@H](CCCN)NC1=O [Example 9.56, Ac-Nle-cyclo(Glu-Orn-D-Phe-Arg-Dab)-NH2] (Ac-[Nle]E[Orn][dF]R[Dab]-NH2; lactam 2-6)	–	8.40	5.44	–
CCCC[C@H](NC(C)=O)C(=O)N[C@H]1CCC(=O)NCC[C@@H](C(N)=O)NC(=O)[C@H](CCCNC(=N)N)NC(=O)[C@@H](Cc2ccc(C)cc2)NC(=O)[C@H](CCCN)NC1=O [Example 9.63, Ac-Nle-cyclo(Glu-Orn-D-Phe(4-Me)-Arg-Dab)-NH2] (Ac-[Nle]E[Orn][dPhe(4-Me)]R[Dab]-NH2; lactam 2-6)	–	8.52	5.00	–
CCCC[C@H](NC(C)=O)C(=O)N[C@H]1CCC(=O)NCC[C@@H](C(N)=O)NC(=O)[C@H](CCCNC(=N)N)NC(=O)[C@@H](Cc2ccccc2)NC(=O)[C@@H]2CCCN2C1=O [Example 9.65, Ac-Nle-cyclo(Glu-Pro-D-Phe-Arg-Dab)-NH2]	–	–	5.00	–
CCCC[C@H](NC(C)=O)C(=O)N[C@H]1CCC(=O)NCC[C@@H](C(=O)N[C@@H](Cc2c[nH]c3ccccc23)C(N)=O)NC(=O)[C@H](CCCNC(=N)N)NC(=O)[C@@H](Cc2ccccc2)NC(=O)[C@H]2CCCN2C1=O [Example 9.66, Ac-Nle-cyclo(Glu-Pro-D-Phe-Arg-Dab)-Trp-NH2]	–	8.52	6.73	–
